Results as given in ChEMBL document CHEMBL1153832, “Identification and characterization of UK-201844, a novel inhibitor that interferes with human immunodeficiency virus type 1 gp160 processing” (Antimicrob Agents Chemother, 2007).
Calls of active or inactive are those of the source. The rule behind the calls is not given here.

Tests used:
[1] = test system: Human immunodeficiency virus 1; experiment: Antiviral activity against HIV1 NL4-3 transfected in HEK293 cells assessed as inhibition of viral envelope gp160 processing at 7.5 uM by Western blot; type: functional; settings: Human immunodeficiency virus 1, NL4-3, HEK293
[2] = test system: Human immunodeficiency virus 1; experiment: Antiviral activity against HIV1 NL4-3 transfected in HEK293 cells assessed as inhibition of viral envelope gp160 processing at 0.5 uM by Western blot; type: functional; settings: Human immunodeficiency virus 1, NL4-3, HEK293
[3] = Therapeutic index, ratio of CC50 for human PM1 cells to EC50 for HIV1 NL4-3; type: cell-based; settings: read-out: TI
[4] = test system: Human immunodeficiency virus 1; experiment: Antiviral activity against HIV1 NL4-3 infected in human PM1 cells assessed as inhibition of viral p24 antigen production after 5 days; type: functional, organism-based; settings: Human immunodeficiency virus 1, NL4-3, PM1, 120 h
[5] = test system: Human immunodeficiency virus 1; experiment: Antiviral activity against HIV1 NL4-3 infected in human MT2 cells assessed as inhibition of viral p24 antigen level at 1.0 uM by Western blot; type: functional; settings: Human immunodeficiency virus 1, NL4-3, MT2
[6] = test system: Human immunodeficiency virus 1; experiment: Ratio of EC50 for recombinant HIV1 NL4-3/3BCt chimeric virus to EC50 for parental HIV1 NL4-3 virus; type: functional
[7] = test system: Human immunodeficiency virus 1; experiment: Antiviral activity against recombinant HIV1 NL4-3 bearing envelope with G354E, V372E substitutions infected in human MT2 cells by virus production assay; type: functional, organism-based
[8] = test system: Human immunodeficiency virus 1; experiment: Antiviral activity against recombinant HIV1 NL4-3 bearing envelope with S162N, N302Y substitutions infected in human MT2 cells by virus production assay; type: functional, organism-based
[9] = test system: Human immunodeficiency virus 1; experiment: Antiviral activity against recombinant HIV1 NL4-3 bearing envelope with G354E substitution infected in human MT2 cells by virus production assay; type: functional, organism-based
[10] = test system: Human immunodeficiency virus 1; experiment: Antiviral activity against recombinant HIV1 NL4-3 bearing envelope with V372E, D474N substitutions infected in human MT2 cells by virus production assay; type: functional, organism-based
[11] = test system: Human immunodeficiency virus 1; experiment: Antiviral activity against recombinant HIV1 NL4-3 bearing envelope with D474N substitution infected in human MT2 cells by virus production assay; type: functional, organism-based
[12] = test system: Human immunodeficiency virus 1; experiment: Ratio of EC50 for recombinant HIV1 NL4-3 bearing envelope with G354E, D474N substitutions to EC50 for parental HIV1 NL4-3; type: functional
[13] = test system: Human immunodeficiency virus 1; experiment: Antiviral activity against HIV1 clade-B clinical isolate up to its cytotoxic concentration; type: functional, organism-based
[14] = test system: Human immunodeficiency virus 1; experiment: Ratio of EC50 for recombinant HIV1 NL4-3 bearing envelope with G354E, V372E substitutions to EC50 for parental HIV1 NL4-3; type: functional
[15] = test system: Human immunodeficiency virus 1; experiment: Ratio of EC50 for recombinant HIV1 NL4-3 bearing envelope with V372E, D474N substitutions to EC50 for parental HIV1 NL4-3; type: functional
[16] = test system: Human immunodeficiency virus 1; experiment: Ratio of EC50 for recombinant HIV1 NL4-3/3BFL chimeric virus to EC50 for parental HIV1 NL4-3 virus; type: functional
[17] = Therapeutic index, ratio of CC50 for human MT2 cells to EC50 for HIV1 Ba-L; type: cell-based; settings: read-out: TI
Furin (Homo sapiens) = Furin (Homo sapiens) (UniProt P09958); experiment: Inhibition of human recombinant furin up to 100 uM
Chain of Furin (Homo sapiens) (P09958 whole entry): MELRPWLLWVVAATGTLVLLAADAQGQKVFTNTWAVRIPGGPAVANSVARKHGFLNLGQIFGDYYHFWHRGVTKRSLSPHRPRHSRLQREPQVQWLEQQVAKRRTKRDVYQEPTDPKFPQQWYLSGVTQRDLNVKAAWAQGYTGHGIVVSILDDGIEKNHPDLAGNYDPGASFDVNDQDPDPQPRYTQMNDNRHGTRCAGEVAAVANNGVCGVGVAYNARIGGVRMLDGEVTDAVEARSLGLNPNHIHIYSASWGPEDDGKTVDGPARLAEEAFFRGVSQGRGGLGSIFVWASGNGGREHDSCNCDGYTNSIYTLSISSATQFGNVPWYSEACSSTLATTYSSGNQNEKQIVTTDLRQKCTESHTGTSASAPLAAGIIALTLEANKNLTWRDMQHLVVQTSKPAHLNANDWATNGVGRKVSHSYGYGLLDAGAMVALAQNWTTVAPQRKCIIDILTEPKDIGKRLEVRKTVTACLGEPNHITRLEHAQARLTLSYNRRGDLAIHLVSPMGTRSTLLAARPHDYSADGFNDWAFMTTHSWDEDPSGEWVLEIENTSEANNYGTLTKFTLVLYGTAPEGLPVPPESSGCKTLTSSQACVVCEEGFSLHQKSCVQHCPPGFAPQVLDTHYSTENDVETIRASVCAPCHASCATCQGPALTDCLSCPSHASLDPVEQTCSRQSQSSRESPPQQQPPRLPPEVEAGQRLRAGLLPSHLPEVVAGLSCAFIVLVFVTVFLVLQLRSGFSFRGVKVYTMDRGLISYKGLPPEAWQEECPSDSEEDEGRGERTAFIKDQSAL

[18] = test system: Human immunodeficiency virus 1; experiment: Antiviral activity against HIV1 NL4-3 infected in human 174XCEM T-cells; type: functional, organism-based
[19] = test system: Human immunodeficiency virus 1; experiment: Antiviral activity against parental HIV1 NL4-3 infected in human MT2 cells by virus production assay; type: functional, organism-based; settings: Human immunodeficiency virus 1, NL4-3, MT2
[20] = test system: Human immunodeficiency virus 1; experiment: Antiviral activity against HIV1 NL4-3 transfected in HEK293 cells assessed as inhibition of infectious virus production at 15 uM; type: functional; design: scale not given: the % may be the effect or the level left
[21] = test system: Human immunodeficiency virus 1; experiment: Antiviral activity against HIV1 bearing HIV1 NL4-3 envelope assessed as reduction in viral envelope-mediated membrane fusion by cell-based fusion assay; type: functional, organism-based
[22] = test system: Human immunodeficiency virus 1; experiment: Antiviral activity against HIV1 bearing VSV envelope infected in human HeLa CD4 cells coexpressing LTR/beta-Gal gene assessed as reduction in virus-induced beta-galactosidase reporter gene activity after 72 hrs by single-cycle infection assay; type: functional, organism-based; settings: Human immunodeficiency virus 1, HeLa
[23] = test system: Human immunodeficiency virus 1; experiment: Antiviral activity against HIV1 NL4-3 infected in human MT2 cells assessed as inhibition of viral p24 antigen level at 7.5 uM by Western blot; type: functional; settings: Human immunodeficiency virus 1, NL4-3, MT2
[24] = test system: Human immunodeficiency virus 1; experiment: Antiviral activity against HIV1 NL4-3 infected in human C8166 cells; type: functional, organism-based
[25] = test system: Human immunodeficiency virus 1; experiment: Ratio of EC50 for recombinant HIV1 NL4-3/3B5'Env chimeric virus to EC50 for parental HIV1 NL4-3 virus; type: functional
[26] = test system: Human immunodeficiency virus 1; experiment: Antiviral activity against recombinant HIV1 NL4/3BNt chimeric virus infected in human MT2 cells assessed as inhibition of virus-induced CPE; type: functional, organism-based; settings: Human immunodeficiency virus 1, NL4/3BNt
[27] = test system: Human immunodeficiency virus 1; experiment: Antiviral activity against HIV1 NL4/3BFL chimeric virus infected in human MT2 cells assessed as inhibition of viral p24 antigen level at 2 uM by Western blot; type: functional; settings: Human immunodeficiency virus 1, NL4/3BFL
[28] = test system: Human immunodeficiency virus 1; experiment: Antiviral activity against HIV1 NL4-3 infected in human MT2 cells assessed as inhibition of viral p24 antigen level at 0.5 uM by Western blot; type: functional; settings: Human immunodeficiency virus 1, NL4-3, MT2
[29] = Cytotoxicity against human PM1 cells after 6 days by XTT assay; type: cell-based
[30] = Cytotoxicity against human MT2 cells after 6 days by XTT assay; type: cell-based

## NC(=O)C(c1ccccc1)(c1ccccc1)[C@H]1CCCN(CCc2ccc3c(c2)CCO3)C1
[1]
  inhibition at 7.5 µM: 99%
[2]
  inhibition at 0.5 µM: 12%
[3]
  selectivity ratio: 17
[4]
  EC50: 2.7 µM
[5]
  inhibition at 1 µM: 44%
[6]
  fold change (FC): 4
[7]
  EC50: 2.2 µM
[8]
  EC50: 8.6 µM
[9]
  EC50: 0.9 µM
[10]
  EC50: > 32 µM
[11]
  EC50: 6.1 µM
[12]
  fold change (FC): >31
[13]
  Activity: inactive
[14]
  fold change (FC): 2.1
[15]
  fold change (FC): >31
[16]
  fold change (FC): >25
[17]
  selectivity ratio: 2
Furin (Homo sapiens)
  Activity: inactive
[18]
  EC50: Active
[19]
  EC50: 1.03 µM
[20]
  Activity: 100%
[21]
  Activity: inactive
[22]
  EC50: > 32 µM
[23]
  inhibition at 7.5 µM: 99%
[24]
  EC50: Active
[25]
  fold change (FC): >25
[26]
  EC50: 1.2 µM
[27]
  inhibition at 2 µM: 2%
[28]
  inhibition at 0.5 µM: 12%
[29]
  CC50 at 144 h: 47 µM
[30]
  CC50 at 144 h: 53 µM
